From US11912719B2, “Substituted isoquinolines as rock kinase inhibitors” (Cervello Therapeutics LLC, priority 2018, dated 2024)
Like-named read-outs stand apart in the source and are kept apart here.

How the values were obtained:
Assay type in all cases: biochemical
[1] = molecular target: T1, human ROCK2 enzyme kinase domain (Homo sapiens, UniProt O75116); experiment: fluorescence coupling (TR-FRET) enzymatic assay, ROCK2; settings: 4 nM enzyme, 50 nM Ulight-CREBTide, one hour room temperature
T1 construct: GST; purchased Carna BioSciences 01-110
T1 sequence (O75116 1-553): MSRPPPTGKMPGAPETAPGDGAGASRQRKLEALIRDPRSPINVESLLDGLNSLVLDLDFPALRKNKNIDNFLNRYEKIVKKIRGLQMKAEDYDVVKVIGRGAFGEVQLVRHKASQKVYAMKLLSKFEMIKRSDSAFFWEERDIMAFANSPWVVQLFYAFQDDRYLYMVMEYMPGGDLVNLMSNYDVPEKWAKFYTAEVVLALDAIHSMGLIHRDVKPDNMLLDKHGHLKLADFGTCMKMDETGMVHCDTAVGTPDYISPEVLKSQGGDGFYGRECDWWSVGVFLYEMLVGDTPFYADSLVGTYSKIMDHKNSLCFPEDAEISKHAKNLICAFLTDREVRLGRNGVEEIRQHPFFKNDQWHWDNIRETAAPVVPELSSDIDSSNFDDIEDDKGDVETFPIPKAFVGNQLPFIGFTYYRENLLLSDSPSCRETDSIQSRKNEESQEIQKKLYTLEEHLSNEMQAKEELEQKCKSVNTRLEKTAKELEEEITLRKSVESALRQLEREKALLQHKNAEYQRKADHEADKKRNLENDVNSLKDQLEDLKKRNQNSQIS
Experimental: (§1) Dose-response curves for compounds of the present invention were determined using a fluorescence coupling enzymatic assay using purified C-terminal truncated human ROCK1 catalytic domain (amino acids 1-477 of accession number NP_005397.1) fused to GST (Carna BioSciences, Catalog #01-109) and purified C-terminal truncated human ROCK2 enzyme kinase domain (amino acids 1-553 of accession number NP_004841.2) fused to GST BioSciences, Catalog #01-110). In addition, full length cGMP-dependent protein kinase 1 (PKG or PRKG1; amino acids 1-686 of accession number NP_006249.1) fused to GST (Carna BioSciences, Catalog #01-142), full length PKACα (PRKACA; amino acids 1-351 of accession number NP_002721.1) fused to GST (Carna BioSciences, Catalog #01-127), and C-terminal truncated human AKT1 catalytic domain (amino acids 104-480 of accession number NP_005154.1) fused to GST Biosciences, Catalog #01-101) were used as a control to measure any non-desired off-target kinase activity.
(§2) Briefly, compounds of the present invention were solubilized in DMSO and a series of 12, three-fold serial dilutions were made for each compound in 2.5% DMSO. The initial starting concentration for the serial dilutions of each compound was 10 μM or 100 μM. Control samples lacking compound, ROCK enzyme or ATP also were prepared and processed in parallel with compound test samples.
(§3) A 4 μL aliquot of each serial dilution of test compound diluted in H2O with 2.5% DMSO was added to a well containing 4 μL of 10 nM purified N-truncated ROCK1 (4 nM final concentration), 10 nM purified N-truncated ROCK2 enzyme (4 nM final concentration), 1.25 nM AKT1 (0.5 nM final concentration), 25 pM PKACA (10 pM final concentration) or 20 nM PKG (8 nM final concentration), in reaction buffer containing 50 mM Hepes, pH 7.5, 1 mM EGTA, 10 mM MgCl2, 2 mM DTT, and 0.01% Tween 20 (final concentration). To initiate the enzymatic reaction, 2 μL of a solution was added to each well to provide a final concentration of 50 nM Ulight-CREBTide peptide substrate (Perkin Elmer, Catalog #TRF0107) and 4 μM ATP for ROCK1 and AKT1 assays, […] for ROCK2 assays and 30 μM ATP for PKG assays, or 1 μM ATP for PKACA assays. The reaction mixtures were incubated at room temperature for one hour. After one hour, the reaction was stopped by the addition of a 10 solution of an Europium-labelled phospho-CREB (Ser133) antibody (Perkin Elmer, Catalog #TRF0200) in LANCE buffer supplemented with 20 mM EDTA. The stopped reaction mixtures were incubated at room temperature for 90 minutes. The TR-FRET 665/620 ratios were determined using a Clariostar monochromator plate reader instrument (BMG LabTech) in accordance with the manufacturer's instructions. The ICso value for each compound was determined from each dose-response curve using GraphPad Prism 7 software with a sigmodial dose response. Key: A is IC50≤100 nM; B is 100 nM<IC50<1000 nM; C is 1,000<IC50≤10,000 nM; D is IC50>10,000 nM

[2] = molecular target: T2, human AKT1 catalytic domain (Homo sapiens, UniProt P31749); experiment: fluorescence coupling (TR-FRET) enzymatic assay, AKT1 off-target control; settings: 0.5 nM enzyme, 4 μM ATP, 50 nM Ulight-CREBTide, one hour room temperature
T2 construct: GST; purchased Carna BioSciences 01-101
T2 sequence (P31749 104-480): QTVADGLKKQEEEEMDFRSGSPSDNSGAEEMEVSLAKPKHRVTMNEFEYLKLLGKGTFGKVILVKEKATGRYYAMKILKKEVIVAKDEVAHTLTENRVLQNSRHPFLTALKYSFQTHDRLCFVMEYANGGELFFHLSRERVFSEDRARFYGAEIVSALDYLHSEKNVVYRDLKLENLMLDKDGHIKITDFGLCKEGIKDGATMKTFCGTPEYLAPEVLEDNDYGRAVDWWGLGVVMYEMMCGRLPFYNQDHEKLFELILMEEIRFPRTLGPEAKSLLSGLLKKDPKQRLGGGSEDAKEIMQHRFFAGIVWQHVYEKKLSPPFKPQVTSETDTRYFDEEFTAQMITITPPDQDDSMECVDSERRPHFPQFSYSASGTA
Experimental: as §1, §2, §3

[3] = molecular target: T3, cGMP-dependent protein kinase 1 (PKG or PRKG1) (Homo sapiens, UniProt Q13976); experiment: fluorescence coupling (TR-FRET) enzymatic assay, PKG off-target control; settings: 8 nM enzyme, 30 μM ATP, 50 nM Ulight-CREBTide, one hour room temperature
T3 construct: GST; purchased Carna BioSciences 01-142
T3 sequence (Q13976 1-686 isoform Q13976-2): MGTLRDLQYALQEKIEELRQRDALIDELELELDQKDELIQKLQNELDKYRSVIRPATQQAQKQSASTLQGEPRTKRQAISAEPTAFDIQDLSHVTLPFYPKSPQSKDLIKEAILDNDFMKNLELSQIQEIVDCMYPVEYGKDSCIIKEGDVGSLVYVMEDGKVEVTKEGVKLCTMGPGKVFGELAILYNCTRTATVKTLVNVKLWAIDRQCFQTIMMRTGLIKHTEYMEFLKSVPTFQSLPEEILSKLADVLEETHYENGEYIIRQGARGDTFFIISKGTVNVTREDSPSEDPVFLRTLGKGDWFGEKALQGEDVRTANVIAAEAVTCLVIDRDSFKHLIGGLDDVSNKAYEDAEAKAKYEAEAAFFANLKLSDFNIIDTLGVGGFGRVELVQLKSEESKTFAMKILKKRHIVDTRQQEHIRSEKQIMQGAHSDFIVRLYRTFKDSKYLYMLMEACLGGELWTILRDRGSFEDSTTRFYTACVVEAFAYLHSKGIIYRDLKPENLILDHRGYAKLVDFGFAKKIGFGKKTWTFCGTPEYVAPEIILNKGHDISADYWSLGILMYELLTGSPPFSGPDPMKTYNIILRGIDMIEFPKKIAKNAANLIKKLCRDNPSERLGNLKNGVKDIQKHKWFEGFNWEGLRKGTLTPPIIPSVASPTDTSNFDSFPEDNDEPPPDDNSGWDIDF
Experimental: as §1, §2, §3

[4] = molecular target: T4, human ROCK1 catalytic domain (Homo sapiens, UniProt Q13464); experiment: fluorescence coupling (TR-FRET) enzymatic assay, ROCK1
T4 construct: GST; purchased Carna BioSciences 01-109
T4 sequence (Q13464 1-477): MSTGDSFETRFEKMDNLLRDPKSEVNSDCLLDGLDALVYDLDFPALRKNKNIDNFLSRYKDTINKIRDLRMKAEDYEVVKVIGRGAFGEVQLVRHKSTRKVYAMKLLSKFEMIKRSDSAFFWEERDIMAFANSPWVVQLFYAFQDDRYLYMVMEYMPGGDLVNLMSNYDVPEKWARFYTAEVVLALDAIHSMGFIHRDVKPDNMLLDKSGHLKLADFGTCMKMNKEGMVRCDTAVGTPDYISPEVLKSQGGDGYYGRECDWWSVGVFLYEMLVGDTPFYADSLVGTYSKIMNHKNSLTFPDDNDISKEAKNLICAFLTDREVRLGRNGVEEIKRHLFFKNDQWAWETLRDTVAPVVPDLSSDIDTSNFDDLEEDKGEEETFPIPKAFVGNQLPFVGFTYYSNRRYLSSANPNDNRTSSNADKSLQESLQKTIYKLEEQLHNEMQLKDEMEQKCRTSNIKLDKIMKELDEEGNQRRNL
Experimental: as §2
The reaction mixtures were incubated at room temperature for one hour. After one hour, the reaction was stopped by the addition of a 10 solution of an Europium-labelled phospho-CREB (Ser133) antibody (Perkin Elmer, Catalog #TRF0200) in LANCE buffer supplemented with 20 mM EDTA. The stopped reaction mixtures were incubated at room temperature for 90 minutes. […] The ICso value for each compound was determined from each dose-response curve using GraphPad Prism 7 software with a sigmodial dose response.

PKACα (PRKACA) = molecular target: T5, PKACα (PRKACA) (Homo sapiens, UniProt P17612); experiment: fluorescence coupling (TR-FRET) enzymatic assay, PKACA off-target control; settings: 10 pM enzyme, 1 μM ATP, 50 nM Ulight-CREBTide, one hour room temperature
T5 construct: GST; purchased Carna BioSciences 01-127
Experimental: as §1, §2, §3

[5] = 4 nM enzyme, 4 μM ATP, 50 nM Ulight-CREBTide, one hour room temperature, read-out: ROCK1 IC50

| Compound | IC50 [1] | IC50 [2] | IC50 [3] | IC50 [4, 5] | IC50 (PKACα (PRKACA)) | IC50 [4] |
| --- | --- | --- | --- | --- | --- | --- |
| Cc1cccc2c1CCN2S(=O)(=O)c1cccc2c(=O)[nH]ccc12 [Example 1, 5-((4-Methylindolin-1-yl)sulfonyl)isoquinolin-1 (2H)-one] | 1 to 10 µM | > 10 µM | > 10 µM | 1 to 10 µM | > 10 µM |  |
| O=c1[nH]ccc2c(S(=O)(=O)N3CCc4cc(O)ccc43)cccc12 [Example 2, 5-((5-Hydroxyindolin-1-yl)sulfonyl)isoquinolin-1 (2H)-one] | > 10 µM | > 10 µM | > 10 µM | > 10 µM | > 10 µM |  |
| O=c1[nH]ccc2c(S(=O)(=O)N3CCc4ccccc43)cccc12 [Example 3, 5-(Indolin-1-ylsulfonyl)isoquinolin-1 (2H)-one] | 1 to 10 µM | > 10 µM | > 10 µM | 1 to 10 µM | > 10 µM |  |
| O=c1[nH]ccc2c(S(=O)(=O)N3CCc4ccc(F)cc43)cccc12 [Example 5, 5-((6-Fluoroindolin-1-yl)sulfonyl)isoquinolin-1 (2H)-one] | 1 to 10 µM | > 10 µM | > 10 µM | 1 to 10 µM | > 10 µM |  |
| Cc1ccc2c(c1)N(S(=O)(=O)c1cccc3c(=O)[nH]ccc13)CC2 [Example 6, 5-((6-Methylindolin-1-yl)sulfonyl)isoquinolin-1 (2H)-one] | 0.1 to 1 µM | > 10 µM | > 10 µM | 1 to 10 µM | > 10 µM |  |
| O=c1[nH]ccc2c(S(=O)(=O)N3CCc4c(C5CC5)cccc43)cccc12 [Example 9, 5-((4-Cyclopropylindolin-1-yl)sulfonyl)isoquinolin-1 (2H)-one] | > 10 µM | > 10 µM | > 10 µM | > 10 µM | > 10 µM |  |
| CC1CN(S(=O)(=O)c2cccc3c(=O)[nH]ccc23)c2ccccc21 (centres unmarked) [Example 13, 5-((3-Methylindolin-1-yl)sulfonyl)isoquinolin-1 (2H)-one] | > 10 µM | > 10 µM | > 10 µM | > 10 µM | > 10 µM |  |
| CC(C)c1cccc2c1CCN2S(=O)(=O)c1cccc2c(=O)[nH]ccc12 [Example 14, 5-((4-Isopropylindolin-1-yl)sulfonyl)isoquinolin-1 (2H)-one] | > 10 µM | > 10 µM | > 10 µM | > 10 µM | > 10 µM |  |
| N#Cc1cc(C2CC2)c2c(c1)N(S(=O)(=O)c1cccc3c(=O)[nH]ccc13)CC2 [Example 17] | 0.1 to 1 µM | > 10 µM | > 10 µM | 0.1 to 1 µM | > 10 µM |  |
| O=c1[nH]ccc2c(S(=O)(=O)N3CCc4ccc(Cl)cc43)cc(Cl)cc12 [Example 19, 7-Chloro-5-((6-chloroindolin-1-yl)sulfonyl)isoquinolin-1 (2H)-one] | > 10 µM | > 10 µM | > 10 µM | > 10 µM | > 10 µM |  |

Now from value to compound:

| IC50 [1] | IC50 [2] | IC50 [3] | IC50 [4, 5] | IC50 (PKACα (PRKACA)) | IC50 [4] | Compound |
| --- | --- | --- | --- | --- | --- | --- |
| 0.1 to 1 µM | > 10 µM | > 10 µM | 0.1 to 1 µM | > 10 µM |  | O=c1[nH]ccc2c(S(=O)(=O)N3CCc4ccc(Cl)cc43)cccc12 [Example 4, 5-((6-Chloroindolin-1-yl)sulfonyl)isoquinolin-1 (2H)-one] |
| 1 to 10 µM | > 10 µM | > 10 µM |  | > 10 µM | 1 to 10 µM | O=c1[nH]ccc2c(S(=O)(=O)N3CCc4c(CO)cccc43)cccc12 [Example 7, 5-((4-(Hydroxymethyl)indolin-1-yl)sulfonyl)isoquinolin-1 (2H)-one] |
| > 10 µM | > 10 µM | > 10 µM | > 10 µM | > 10 µM |  | O=c1[nH]ccc2c(S(=O)(=O)N3CCc4c3cccc4C(F)(F)F)cccc12 [Example 8, 5-((4-(Trifluoromethyl)indolin-1-yl)sulfonyl)isoquinolin-1 (2H)-one] |
| > 10 µM | > 10 µM | > 10 µM | > 10 µM | > 10 µM |  | CCc1cccc2c1CCN2S(=O)(=O)c1cccc2c(=O)[nH]ccc12 [Example 10, 5-((4-ethylindolin-1-yl)sulfonyl)isoquinolin-1 (2H)-one] |
| 1 to 10 µM | > 10 µM | > 10 µM | 1 to 10 µM | > 10 µM |  | CC(O)c1cccc2c1CCN2S(=O)(=O)c1cccc2c(=O)[nH]ccc12 (centres unmarked) [Example 11, 5-((4-(1-Hydroxyethyl)indolin-1-yl)sulfonyl)isoquinolin-1 (2H)-one] |
| > 10 µM | > 10 µM | > 10 µM | > 10 µM | > 10 µM |  | CC1(C)CN(S(=O)(=O)c2cccc3c(=O)[nH]ccc23)c2ccccc21 [Example 12, 5-((3,3-Dimethylindolin-1-yl)sulfonyl)isoquinolin-1 (2H)-one] |
| < 0.1 µM | > 10 µM | > 10 µM | 0.1 to 1 µM | > 10 µM |  | N#Cc1ccc2c(c1)N(S(=O)(=O)c1cccc3c(=O)[nH]ccc13)CC2 [Example 15, 1-((1-Oxo-1,2-dihydroisoquinolin-5-yl)sulfonyl)indoline-6-carbonitrile] |
| 1 to 10 µM | > 10 µM | > 10 µM | 1 to 10 µM | > 10 µM |  | O=c1[nH]ccc2c(S(=O)(=O)N3CCc4c(Cl)cc(Cl)cc43)cccc12 [Example 16, 5-((4,6-Dichloroindolin-1-yl)sulfonyl)isoquinolin-1 (2H)-one] |
| 0.1 to 1 µM | > 10 µM | > 10 µM | 0.1 to 1 µM | > 10 µM |  | Cc1cc(C#N)cc2c1CCN2S(=O)(=O)c1cccc2c(=O)[nH]ccc12 [Example 18] |
